From ChEMBL document CHEMBL5465560, “Selectivity Literature for EUbOPEN Chemogenomic Library” (2024)

How the values were obtained:
[1] = molecular target: T1, Tyrosine-protein kinase ABL2 (Homo sapiens, UniProt P42684); assay: (§1) Selectivity interaction (Radiometric assay (Reaction Biology)) EUB0000121b ABL2; details: at 10 µM
[2] = molecular target: T1, Tyrosine-protein kinase ABL2; assay: as §1
[3] = molecular target: Calcium/calmodulin-dependent protein kinase type IV (Homo sapiens, UniProt Q16566); assay: Selectivity interaction (Radiometric assay (Reaction Biology)) EUB0000121b CAMK4
[4] = molecular target: CDK1/Cyclin E (Homo sapiens) (UniProt P06493+P24864); assay: Selectivity interaction (NanoBRET assay in HEK293T cells) EUB0000121b CDK1; format: cell-based; details: HEK-293T, at 10 µM
Sequence of CDK1/Cyclin E (Homo sapiens) (P06493 whole entry, looked up): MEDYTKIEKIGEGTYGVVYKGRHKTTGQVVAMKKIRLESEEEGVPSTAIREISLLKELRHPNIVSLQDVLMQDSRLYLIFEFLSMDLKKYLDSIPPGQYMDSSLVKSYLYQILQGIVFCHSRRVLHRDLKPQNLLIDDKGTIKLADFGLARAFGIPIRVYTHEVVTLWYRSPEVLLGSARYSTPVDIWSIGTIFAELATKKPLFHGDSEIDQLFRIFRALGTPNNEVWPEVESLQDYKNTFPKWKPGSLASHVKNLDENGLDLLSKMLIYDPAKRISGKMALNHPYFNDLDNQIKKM
Sequence of CDK1/Cyclin E (Homo sapiens) (P24864 whole entry, looked up): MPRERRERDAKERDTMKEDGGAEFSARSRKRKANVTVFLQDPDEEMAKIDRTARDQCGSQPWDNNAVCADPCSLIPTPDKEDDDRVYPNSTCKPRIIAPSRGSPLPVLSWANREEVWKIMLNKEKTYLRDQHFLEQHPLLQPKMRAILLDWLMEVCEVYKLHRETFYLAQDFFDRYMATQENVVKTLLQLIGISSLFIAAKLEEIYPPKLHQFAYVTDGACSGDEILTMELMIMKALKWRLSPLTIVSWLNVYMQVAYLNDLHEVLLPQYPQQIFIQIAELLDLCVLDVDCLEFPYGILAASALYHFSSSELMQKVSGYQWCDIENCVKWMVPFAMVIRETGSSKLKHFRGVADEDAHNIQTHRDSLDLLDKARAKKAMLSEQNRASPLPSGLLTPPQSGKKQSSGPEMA

[5] = molecular target: CDK10/Cyclin L2 (Homo sapiens) (UniProt Q15131+Q96S94); assay: Selectivity interaction (NanoBRET assay in HEK293T cells) EUB0000121b CDK10; format: cell-based; details: HEK-293T, at 10 µM
[6] = molecular target: CDK11A/Cyclin L2 (Homo sapiens) (UniProt Q9UQ88+Q96S94); assay: Selectivity interaction (NanoBRET assay in HEK293T cells) EUB0000121b CDK11A; format: cell-based; details: HEK-293T, at 10 µM
[7] = molecular target: CDK11B/Cyclin L2 (Homo sapiens) (UniProt P21127+Q96S94); assay: Selectivity interaction (NanoBRET assay in HEK293T cells) EUB0000121b CDK11B; format: cell-based; details: HEK-293T, at 10 µM
[8] = molecular target: CDK12/Cyclin K (Homo sapiens) (UniProt O75909+Q9NYV4); assay: Selectivity interaction (NanoBRET assay in HEK293T cells) EUB0000121b CDK12; format: cell-based; details: HEK-293T, at 10 µM
[9] = molecular target: Cyclin-dependent kinase 13/Cyclin-K (Homo sapiens) (UniProt Q14004+O75909); assay: Selectivity interaction (NanoBRET assay in HEK293T cells) EUB0000121b CDK13; format: cell-based; details: HEK-293T, at 10 µM
[10] = molecular target: Cyclin-dependent kinase 14/Cyclin-Y (Homo sapiens) (UniProt O94921+Q8ND76); assay: Selectivity interaction (NanoBRET assay in HEK293T cells) EUB0000121b CDK14; format: cell-based; details: HEK-293T, at 10 µM
[11] = molecular target: CDK15/Cyclin Y (Homo sapiens) (UniProt Q96Q40+Q8ND76); assay: Selectivity interaction (NanoBRET assay in HEK293T cells) EUB0000121b CDK15; format: cell-based; details: HEK-293T, at 10 µM
[12] = molecular target: Cyclin-Y/Cyclin-dependent kinase 16 (Homo sapiens) (UniProt Q00536+Q8ND76); assay: Selectivity interaction (NanoBRET assay in HEK293T cells) EUB0000121b CDK16; format: cell-based; details: HEK-293T, at 10 µM
[13] = molecular target: CDK17/Cyclin-Y (Homo sapiens) (UniProt Q00537+Q8ND76); assay: Selectivity interaction (NanoBRET assay in HEK293T cells) EUB0000121b CDK17; format: cell-based; details: HEK-293T, at 10 µM
[14] = molecular target: CDK18/Cyclin Y (Homo sapiens) (UniProt Q07002+Q8ND76); assay: Selectivity interaction (NanoBRET assay in HEK293T cells) EUB0000121b CDK18; format: cell-based; details: HEK-293T, at 10 µM
[15] = molecular target: Cyclin-C/Cyclin-dependent kinase 19 (Homo sapiens) (UniProt Q9BWU1+P24863); assay: Selectivity interaction (NanoBRET assay in HEK293T cells) EUB0000121b CDK19; format: cell-based; details: HEK-293T, at 10 µM
[16] = molecular target: Cyclin-dependent kinase 2/cyclin E1 (Homo sapiens) (UniProt P24864+P24941); assay: Selectivity interaction (NanoBRET assay in HEK293T cells) EUB0000121b CDK2; format: cell-based; details: HEK-293T, at 10 µM
[17] = molecular target: Cyclin-dependent kinase 2/cyclin A (Homo sapiens, UniProt P24941); assay: Selectivity interaction (LanthaScreen Eu Kinase Binding Assay (Invitrogen)) EUB0000121b CDK2; format: protein-complex assay
[18] = molecular target: CDK20/Cyclin H (Homo sapiens) (UniProt P51946+Q8IZL9); assay: Selectivity interaction (NanoBRET assay in HEK293T cells) EUB0000121b CDK20; format: cell-based; details: HEK-293T, at 10 µM
[19] = molecular target: CDK3/Cyclin E (Homo sapiens) (UniProt P24864+Q00526); assay: Selectivity interaction (NanoBRET assay in HEK293T cells) EUB0000121b CDK3; format: cell-based; details: HEK-293T, at 10 µM
[20] = molecular target: Cyclin-dependent kinase 4/cyclin D1 (Homo sapiens) (UniProt P11802+P24385); assay: Selectivity interaction (NanoBRET assay in HEK293T cells) EUB0000121b CDK4; format: cell-based; details: HEK-293T, at 10 µM
[21] = molecular target: Cyclin-dependent kinase 5/CDK5 activator 1 (Homo sapiens) (UniProt Q00535+Q15078); assay: Selectivity interaction (NanoBRET assay in HEK293T cells) EUB0000121b CDK5; format: cell-based; details: HEK-293T, at 10 µM
Sequence of Cyclin-dependent kinase 5/CDK5 activator 1 (Homo sapiens) (Q00535 whole entry): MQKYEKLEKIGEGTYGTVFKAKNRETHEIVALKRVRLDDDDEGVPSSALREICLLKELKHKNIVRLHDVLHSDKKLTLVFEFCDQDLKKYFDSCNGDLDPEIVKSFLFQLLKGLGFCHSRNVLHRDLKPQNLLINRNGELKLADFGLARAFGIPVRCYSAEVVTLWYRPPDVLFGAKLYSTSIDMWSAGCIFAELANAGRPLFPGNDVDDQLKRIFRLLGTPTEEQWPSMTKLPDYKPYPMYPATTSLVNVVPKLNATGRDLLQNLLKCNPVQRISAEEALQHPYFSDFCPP
Sequence of Cyclin-dependent kinase 5/CDK5 activator 1 (Homo sapiens) (Q15078 99-307 partner limits assumed): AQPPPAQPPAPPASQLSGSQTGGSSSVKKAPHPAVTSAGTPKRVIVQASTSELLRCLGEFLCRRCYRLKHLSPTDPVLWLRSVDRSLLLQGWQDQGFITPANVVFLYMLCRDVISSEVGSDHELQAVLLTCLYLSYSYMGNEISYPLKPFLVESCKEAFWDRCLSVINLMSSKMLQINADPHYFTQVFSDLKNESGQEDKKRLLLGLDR

[22] = molecular target: CDK6/cyclin D1 (Homo sapiens) (UniProt P24385+Q00534); assay: Selectivity interaction (NanoBRET assay in HEK293T cells) EUB0000121b CDK6; format: cell-based; details: HEK-293T, at 10 µM
[23] = molecular target: CDK6/cyclin D3 (Homo sapiens, UniProt Q00534); assay: Selectivity interaction ( In-vitro potency (TR-FRET-based LANCE Ultra assay)) EUB0000121b CDK6; format: protein-complex assay
[24] = molecular target: Cyclin-dependent kinase 7 (Homo sapiens, UniProt P50613); assay: Selectivity interaction (NanoBRET assay in HEK293T cells) EUB0000121b CDK7; format: cell-based; details: HEK-293T, at 10 µM
Sequence of Cyclin-dependent kinase 7 (P50613 whole entry): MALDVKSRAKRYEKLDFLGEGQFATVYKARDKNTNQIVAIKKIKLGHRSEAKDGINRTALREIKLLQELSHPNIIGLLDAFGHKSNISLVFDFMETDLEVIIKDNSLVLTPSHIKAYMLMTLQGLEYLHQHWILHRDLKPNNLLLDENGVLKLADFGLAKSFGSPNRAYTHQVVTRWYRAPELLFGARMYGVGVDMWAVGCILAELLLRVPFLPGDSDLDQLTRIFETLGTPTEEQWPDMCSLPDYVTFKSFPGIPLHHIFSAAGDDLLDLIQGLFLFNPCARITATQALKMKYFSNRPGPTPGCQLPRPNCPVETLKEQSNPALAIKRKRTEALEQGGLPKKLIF

[25] = molecular target: T2, CDK7/Cyclin H/MNAT1 (Homo sapiens, UniProt P50613); assay: Selectivity interaction (LanthaScreen Eu Kinase Binding Assay (Invitrogen)) EUB0000121b CDK7; format: protein-complex assay
T2 sequence (P51946 whole entry): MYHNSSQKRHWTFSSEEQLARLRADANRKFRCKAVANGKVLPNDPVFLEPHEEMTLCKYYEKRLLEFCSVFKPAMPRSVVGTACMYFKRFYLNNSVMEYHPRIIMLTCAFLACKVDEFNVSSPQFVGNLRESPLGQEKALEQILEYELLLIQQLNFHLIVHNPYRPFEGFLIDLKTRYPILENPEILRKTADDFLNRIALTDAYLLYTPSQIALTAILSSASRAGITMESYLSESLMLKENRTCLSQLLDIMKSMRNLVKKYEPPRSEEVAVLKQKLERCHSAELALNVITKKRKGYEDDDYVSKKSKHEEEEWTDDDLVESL
T2 sequence (P50613 whole entry): as the sequence (P50613 whole entry) above
T2 sequence (P51948 whole entry, further chain): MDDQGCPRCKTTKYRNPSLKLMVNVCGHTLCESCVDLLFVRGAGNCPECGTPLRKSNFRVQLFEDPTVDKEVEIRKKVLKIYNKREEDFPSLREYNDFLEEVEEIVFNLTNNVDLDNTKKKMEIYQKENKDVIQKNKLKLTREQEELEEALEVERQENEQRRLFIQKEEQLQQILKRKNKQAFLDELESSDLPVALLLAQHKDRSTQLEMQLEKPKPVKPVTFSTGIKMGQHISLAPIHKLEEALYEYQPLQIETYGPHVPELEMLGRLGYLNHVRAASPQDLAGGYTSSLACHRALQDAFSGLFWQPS

[26] = molecular target: T2, CDK7/Cyclin H/MNAT1; assay: Selectivity interaction ( In-vitro potency (TR-FRET-based LANCE Ultra assay)) EUB0000121b CDK7; format: protein-complex assay
[27] = molecular target: CDK8/Cyclin C (Homo sapiens) (UniProt P49336+P24863); assay: Selectivity interaction (NanoBRET assay in HEK293T cells) EUB0000121b CDK8; format: cell-based; details: HEK-293T, at 10 µM
[28] = molecular target: CDK9/Cyclin K (Homo sapiens) (UniProt P50750+O75909); assay: Selectivity interaction (NanoBRET assay in HEK293T cells) EUB0000121b CDK9; format: cell-based; details: HEK-293T, at 10 µM
[29] = molecular target: T3, Glycogen synthase kinase-3 alpha (Homo sapiens, UniProt P49840); assay: (§2) Selectivity interaction (Radiometric assay (Reaction Biology)) EUB0000121b GSK3A; details: at 10 µM
[30] = molecular target: T3, Glycogen synthase kinase-3 alpha; assay: as §2
[31] = molecular target: T4, Mitogen-activated protein kinase kinase kinase kinase 4 (Homo sapiens, UniProt O95819); assay: (§3) Selectivity interaction (Radiometric assay (Reaction Biology)) EUB0000121b MAP4K4; details: at 10 µM
Target sequence in this assay (O95819 2-1239 limits assumed): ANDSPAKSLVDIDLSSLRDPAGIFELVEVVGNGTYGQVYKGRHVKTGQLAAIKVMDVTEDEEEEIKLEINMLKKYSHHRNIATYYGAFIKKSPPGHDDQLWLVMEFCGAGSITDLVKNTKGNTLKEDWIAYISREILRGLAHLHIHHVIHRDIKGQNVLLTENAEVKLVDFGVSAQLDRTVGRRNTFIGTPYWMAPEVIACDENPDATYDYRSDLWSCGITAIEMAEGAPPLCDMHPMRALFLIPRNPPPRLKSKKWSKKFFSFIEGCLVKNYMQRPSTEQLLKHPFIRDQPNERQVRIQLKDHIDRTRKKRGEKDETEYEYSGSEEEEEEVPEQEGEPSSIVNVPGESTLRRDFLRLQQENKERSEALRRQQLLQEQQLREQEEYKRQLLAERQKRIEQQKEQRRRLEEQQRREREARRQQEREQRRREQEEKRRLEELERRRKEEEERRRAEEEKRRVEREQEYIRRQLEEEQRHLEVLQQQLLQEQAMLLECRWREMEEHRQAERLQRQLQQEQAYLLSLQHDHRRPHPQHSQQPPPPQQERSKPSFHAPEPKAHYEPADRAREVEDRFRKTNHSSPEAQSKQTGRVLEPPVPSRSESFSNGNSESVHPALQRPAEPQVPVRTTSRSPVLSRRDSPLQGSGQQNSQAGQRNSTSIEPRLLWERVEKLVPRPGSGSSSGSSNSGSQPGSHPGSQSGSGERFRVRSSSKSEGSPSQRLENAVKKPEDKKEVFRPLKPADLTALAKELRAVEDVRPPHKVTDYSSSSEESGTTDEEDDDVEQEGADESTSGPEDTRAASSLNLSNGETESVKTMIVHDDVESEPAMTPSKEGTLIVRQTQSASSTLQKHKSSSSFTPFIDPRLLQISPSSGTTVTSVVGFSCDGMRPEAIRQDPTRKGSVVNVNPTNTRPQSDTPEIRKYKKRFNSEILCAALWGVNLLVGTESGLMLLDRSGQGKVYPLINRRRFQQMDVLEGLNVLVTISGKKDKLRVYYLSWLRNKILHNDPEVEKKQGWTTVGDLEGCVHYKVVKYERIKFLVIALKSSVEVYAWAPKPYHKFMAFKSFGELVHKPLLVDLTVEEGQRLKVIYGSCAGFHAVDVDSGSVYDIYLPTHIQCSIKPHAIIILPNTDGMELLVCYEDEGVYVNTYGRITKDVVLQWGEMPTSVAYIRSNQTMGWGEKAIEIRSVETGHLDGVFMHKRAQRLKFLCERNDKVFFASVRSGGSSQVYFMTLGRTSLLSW

[32] = molecular target: T4, Mitogen-activated protein kinase kinase kinase kinase 4; assay: as §3

T1 sequence (P42684 whole entry): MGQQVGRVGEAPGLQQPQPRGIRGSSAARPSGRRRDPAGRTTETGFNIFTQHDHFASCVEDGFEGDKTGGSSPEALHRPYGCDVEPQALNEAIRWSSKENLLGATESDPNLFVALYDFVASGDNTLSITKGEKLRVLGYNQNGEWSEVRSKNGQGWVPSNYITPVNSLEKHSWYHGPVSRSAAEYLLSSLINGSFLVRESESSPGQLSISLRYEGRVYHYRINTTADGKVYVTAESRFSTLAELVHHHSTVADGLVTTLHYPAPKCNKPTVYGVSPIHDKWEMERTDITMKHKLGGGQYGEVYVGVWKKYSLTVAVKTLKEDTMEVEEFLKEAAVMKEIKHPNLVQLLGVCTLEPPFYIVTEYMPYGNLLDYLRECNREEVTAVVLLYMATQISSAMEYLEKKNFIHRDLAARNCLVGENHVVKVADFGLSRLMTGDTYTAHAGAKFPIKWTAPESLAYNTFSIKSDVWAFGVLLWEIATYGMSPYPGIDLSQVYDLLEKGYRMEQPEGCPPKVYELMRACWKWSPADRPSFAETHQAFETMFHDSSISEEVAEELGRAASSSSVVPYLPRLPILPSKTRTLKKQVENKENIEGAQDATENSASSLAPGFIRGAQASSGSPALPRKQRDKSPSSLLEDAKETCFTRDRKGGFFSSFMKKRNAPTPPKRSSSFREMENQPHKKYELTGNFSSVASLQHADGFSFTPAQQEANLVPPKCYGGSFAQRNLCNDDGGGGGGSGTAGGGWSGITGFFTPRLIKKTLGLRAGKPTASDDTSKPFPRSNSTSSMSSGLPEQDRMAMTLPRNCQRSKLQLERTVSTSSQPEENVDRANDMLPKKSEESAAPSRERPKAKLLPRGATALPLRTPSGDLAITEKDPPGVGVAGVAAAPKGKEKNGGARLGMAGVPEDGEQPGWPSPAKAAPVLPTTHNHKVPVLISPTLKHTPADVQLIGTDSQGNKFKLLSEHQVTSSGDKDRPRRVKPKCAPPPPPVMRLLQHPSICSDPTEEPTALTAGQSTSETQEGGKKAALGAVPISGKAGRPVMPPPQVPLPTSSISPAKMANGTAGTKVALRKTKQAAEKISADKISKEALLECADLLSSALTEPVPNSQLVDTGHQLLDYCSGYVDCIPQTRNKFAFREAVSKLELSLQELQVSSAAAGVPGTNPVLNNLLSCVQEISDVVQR

With `COc1ccccc1-c1cc(Nc2cccc(CS(N)(=O)=O)c2)ncn1` the % of control [1] was 27%, the IC50 [2] was 3.64 µM and the IC50 [3] was over 20 µM. For the same molecule, the % of inhibition [4] was 31.6%, the % of inhibition [5] was 6.6% and the % of inhibition [6] was 7.5%. The % of inhibition [7] was 10.2%, the % of inhibition [8] was 22.1% and the % of inhibition [9] was 10.2%. It also gave a % of inhibition [10] of -2.3%, a % of inhibition [11] of -1% and a % of inhibition [12] of 14.8%. The % of inhibition [13] was 19%, the % of inhibition [14] was 8.7% and the % of inhibition [15] was 11.4%. The % of inhibition [16] was 18.7%, the IC50 [17] was 1.01 µM and the % of inhibition [18] was 14.5%. It also gave a % of inhibition [19] of 27.7%, a % of inhibition [20] of 44% and a % of inhibition [21] of 11.4%. The % of inhibition [22] was 38.7%, the IC50 [23] was over 10 µM and the % of inhibition [24] was -9.3%. The IC50 [25] was 16 µM, the IC50 [26] was over 10 µM and the % of inhibition [27] was 5.3%. For the same molecule, the % of inhibition [28] was 88.8%, the % of control [29] was 9.5% and the IC50 [30] was 1.46 µM. The % of control [31] was 17.5% and the IC50 [32] was 0.82 µM.
